{"source": "patent US12016834B2", "about": "“Small molecule inhibitors of SLC25A1” (GEORGETOWN UNIVERSITY, priority 2017, dated 2024)", "key": {"[1]": {"system": "MP2 cells", "test": "Self-renewal and sphere forming in methylcellulose", "format": "cell-based, human", "conditions": "semi-solid media", "experimental": "(§1) Self-renewal assays. Tumor cells cultured as spheroids were dissociated and diluted in 2× sphere media containing 1% methyl cellulose, which was previously dissolved in cold DMEM/F12 media. Either 200, 500, or 1000 cells were then plated in each 96 well and were incubated in the presence or absence of drugs, as indicated. The spheres were allowed to form for a period of a week to ten days, at which point they were counted. Six biological replicates were used for quantification of the results.\n(§2) Primary lung cancer cultures and GMSC. Surgical samples were minced and digested with dispase (50 U/ml) in DMEM media containing 5% serum for 1 hour. Pleural effusions were centrifuged, washed once in PBS, and then plated. All primary cultures were initially grown on 6-well plates pre-coated with 2% Geltrex (Life Technologies; Carlsbad, CA) and 1% Maxgel (Sigma Aldrich). Maxgel is a humanized matrix, native and non-denatured. The inclusion of Maxgel in the system enhanced the initial attachment of primary tumor cells, partially because Maxgel provides a more natural ECM conformational substrate. The day after plating, the media containing unattached cells was typically transferred to a fresh plate, in most of cases generating new attached cultures. […]"}, "[2]": {"system": "MP1 cells", "test": "Self-renewal and sphere forming in methylcellulose", "format": "cell-based, human", "conditions": "semi-solid media", "experimental": "as §1, §2"}, "[3]": {"system": "MP2 cells", "test": "Tumor xenograft in immuno-compromised mice", "format": "in vivo", "conditions": "co-treatment with AZD9291, relative to AZD9291 alone", "experimental": "(§3) Mice and treatments. To produce tumor xenografts, 5×10^6 cells derived from either monolayer cultures or GMSC expanded spheres were dissociated with Accutase, resuspended in PBS, and injected subcutaneously in the flanks of female balb athymic mice. Once detectable tumors started to form, their sizes were measured with a caliper in three dimensions and mice were randomized in the different treatment groups. […] Cisplatin was administered at 26 mg/kg every three or four days. AZD9291 was administered at 25/mg/Kg every 3 days. Serial measurements were made every day after the identification of the initial tumor mass to determine growth curves in vivo. Tumor volume was calculated using the formula for a prolate spheroid: volume=[…], where a is the width and b is the length. All animals were sacrificed when the tumors exceeded 1.5 cm. At the completion of experiments, tumors were excised, weighed, and the statistical significances of differences in tumor volume were assessed. Animals were monitored once a week for the presence of signs of disease, particularly neurological disturbances or weight loss, and they were weighed periodically.\n(§4) Statistics. For the animal studies, power calculations for each treatment group were first determined. The number of animals was calculated to detect a 50% difference at alpha=0.05 and power=0.8. Statistical significance was assessed using both unpaired, two-tailed Student t test, and analysis of variance (ANOVA). Significant differences are indicated using the standard […] scale (P<0.05, significant; P<0.01, highly significant; P<0.001, extremely significant)."}, "[4]": {"system": "MP1 cells", "test": "Tumor xenograft in immuno-compromised mice", "format": "in vivo", "experimental": "as §3, §4"}, "[5]": {"system": "H1299 cells", "test": "Citrate levels in mitochondrial or cytoplasmic fractions", "format": "cell-based, human", "conditions": "4 hours", "experimental": "Cells, reagents, antibodies, primers. The H1299 cell lines and other cell lines employed in this study were obtained from ATCC or from the tissue culture core facility at LCCC. Cells were grown in Dulbecco's Modified Eagle's Medium (DMEM, 25 mM glucose, with glutamine and pyruvate from Invitrogen; Carlsbad, CA) and supplemented with 10% fetal calf serum (FCS). […] The SLC25A1 specific shRNA vectors were purchased from Sigma. The vector expressing human SLC25A1 untagged or Flag-Myc epitope tagged were from Origene; Rockville, MD (#SC120727 and RC200657, respectively). The anti-SLC25A1 antibody used in immuno-blot was from Santa Cruz Biotech, #sc-86392 employed at 1:1000 dilution. Citrate, lactate, and PFK measurements were performed by using commercially available kits (Biovision (Milpitas, CA)).\nMitochondria isolation and cellular sub-fractionation. Mitochondria and cytoplasmic fractions were prepared as follows. Cells were collected in PBS for 5′, then the pellet was e-suspended in 5 packed cell volumes of mitochondria buffer (250 mM sucrose; 20 mM HEPES (7.4); 10 mM KCl, 1.5 mM MgCl2; 1 mM EDTA; 1 mM EGTA 0.5 M, supplemented with freshly added PMSF and 1 mM […]). Cell lysates were passed through a 25 G needle 10 times, then 5 times through a 27 G needle, followed by incubation on ice for 10-15 minutes. Extracts were centrifuged at 720 G for 5 minutes. The supernatant was centrifuged again at 10000 G and the derived pellet provided the mitochondrial fraction and the supernatant provided the cytoplasmic fraction. To extract the mitochondria for measurement of citrate, the pellet from the previous centrifugation was resuspended in PBS and subjected to 3 cycles of freeze-and-thaw in dry ice immersed in ethanol. The fraction was centrifuged again and re-suspended in PBS. The supernatant (containing cytosolic and membrane fractions) was centrifuged multiple times to eliminate particulate material, and was used as the cytosolic fraction."}}, "data": [{"smiles": "O=C(O)c1ccccc1NS(=O)(=O)c1ccc(Cl)c([N+](=O)[O-])c1", "note": "[CTPI-2]", "values": [{"measurement": "self-renewal and sphere forming ability", "setting": "[1]", "result": "blunted self-renewal and sphere forming ability"}, {"measurement": "self-renewal and sphere forming ability", "setting": "[2]", "result": "blunted self-renewal and sphere forming ability"}, {"measurement": "tumor growth inhibition, combination", "setting": "[3]", "result": "prominent enhancement of tumor growth inhibition"}, {"measurement": "tumor growth inhibition, single agent", "setting": "[4]; 26 mg/Kg alternate days i.p., GMSC-derived versus monolayer-derived tumors", "result": "more effective in inhibiting the growth of GMSC-derived MP1 tumors"}, {"measurement": "body weights", "setting": "[4]; 26 mg/Kg at alternate days intra-peritoneally", "result": "remained unchanged"}, {"measurement": "tolerability", "setting": "[4]; 26 mg/Kg at alternate days intra-peritoneally, entire treatment period", "result": "well tolerated"}, {"measurement": "tumor growth inhibition, combination", "setting": "[4]; CTPI-2 added to the cisplatin regimen", "result": "very significant"}, {"measurement": "stem cell markers in tumors (immuno-blot)", "setting": "[4]; GMSC-derived tumors (FIG. 7F)", "result": "dramatic reduction"}, {"measurement": "tumor doubling times", "setting": "[4]; relative to mock- and cisplatin-treated groups", "result": "significantly extended the tumor doubling times"}, {"measurement": "cytoplasmic citrate", "setting": "[5]; 2D cultures", "result": "reduction of cytoplasmic citrate"}, {"measurement": "mitochondrial citrate", "setting": "[5]; 2D cultures", "result": "induced accumulation of mitochondrial citrate"}, {"measurement": "cytosolic citrate", "setting": "[5]; spheres", "result": "without affecting the cytosolic citrate"}, {"measurement": "mitochondrial citrate", "setting": "[5]; spheres", "result": "starkly decreased mitochondrial citrate"}]}]}
